{
  "source": "paper PMC11093748",
  "about": "“De novo identification of CD4^+ T cell epitopes” (Nature Methods, 2024)",
  "test_in_all_cases": "Single SABR-II co-incubation, TCR analogs",
  "type_in_all_cases": "cell-based, mouse",
  "conditions_in_all_cases": "Fig 4B",
  "key": {"TCR 4 Analog 1": {"tested_on": "TCR 4 Analog 1", "source_text": "(§1) We hypothesized that computational grouping of TCR specificities may reveal closely related TCRs that potentially recognize the same epitope(s), similar to the reverse epitope discovery approach (Fig. 4a). In the absence of experimental antigen discovery, grouping of TCRs is not informative of reactivity; however, we hypothesized that TCRs that co-clustered with SABR-II de-convoluted TCRs bind to the same antigens. To test this, we used three TCR-similarity search algorithms: GLIPH2 (refs. [38],[69]), tcrdist3 (ref. [37]) and CoNGA[39]. All three algorithms take slightly different approaches to group TCR sequences and generate clusters of TCR sequences that share high sequence similarity. In addition, CoNGA considers the transcriptional similarities among T cell clones. Using CoNGA, we defined TCR clusters for two TCRs, TCR4 and TCR6B, and identified analogs that slightly differed in sequences. Moreover, for TCR30, we were able to identify six TCR analogs that co-clustered in CoNGA analysis as well as GLIPH2. For TCR11, we first identified a gene expression (GEX) cluster that had ~50 TCRs that clustered based on gene expression. Using tcrdist3, we calculated the relative distance of each of these TCRs from TCR11 and selected the top seven clonotypes for expression. Together, 16 TCRs were identified as analogs of the experimentally de-convoluted TCRs (Extended Data Fig. 8). These TCRs were cloned and expressed in Jurkat cells. We performed co-incubation assays using single SABR-IIs and observed that 5 of 16 TCRs recognized the same epitopes as the parental TCRs (Fig. 4b). As a result, we were able to identify the cognate epitopes of five additional TCRs from our dataset that had otherwise not been selected for SABR-II screening based on our clonal expansion cutoff.\n(§2) Exported clonotypes were used as inputs for GLIPH2 (ref. [69]). For CoNGA, the merged dataset was exported as a .h5ad file and used as an input along with the CellRanger vdj output file. CoNGA analysis was performed using default parameters. Pairwise relative distances among TCRs were calculated using tcrdist3 (ref. [37]). CoNGA, tcrdist3 and GLIPH2 output files were searched manually for analogs that co-cluster with experimentally de-convoluted TCRs. Analogs were synthesized and cloned as described above.\n(§3) For SABR library screens, 3 × 10^6 NFAT–GFP Jurkat cells expressing the SABR library were labeled with CellTrace Violet (BioLegend) according to the manufacturer’s protocol before incubation with 3 × 10^6 Jurkat cells expressing the TCR of interest. These mixtures were incubated in a six-well plate for 16–20 h. Cells were stained with anti-CD69-APC-Cy7 where indicated (BioLegend) and the top 1–2% of GFP^+CD69^+ cells were sorted for genomic DNA extraction, indexing and sequencing (see below). Multiplexed assays were scaled on a per-TCR basis (for example 3 × 10^6 for each of three TCRs against 9 × 10^6 library cells). For single SABR assays, unless otherwise defined, 5 × 10^5 SABR expressing NFAT–GFP Jurkat cells (or 5KC cells) were labeled with CellTrace Violet (BioLegend) according to the manufacturer’s protocol before incubation with 5 × 10^5 TCR-expressing Jurkat cells (or 5KC cells) in a round-bottom 96-well plate for 16–20 h. Cells were stained with anti-CD69-APC-Cy7 when indicated and acquired on the Attune NxT flow cytometer (Thermo Fisher Scientific). All flow analysis was performed using FlowJo (BD). For Daudi cell co-culture, 1 × 10^6 Jurkat cells expressing the TCR of interest were incubated with 1 × 10^6 Daudi cells expressing a SABR of interest for 3 days. On day 3, cells were labeled with anti-RT1B-PE and anti-Fas-APC-Cy7 before being acquired on the Attune NxT flow cytometer."}, "TCR 4 Analog 2": {"tested_on": "TCR 4 Analog 2", "source_text": "as §1, §2, §3"}, "TCR 11 Analog 1": {"tested_on": "TCR 11 Analog 1", "source_text": "as §1, §2, §3"}, "TCR 11 Analog 2": {"tested_on": "TCR 11 Analog 2", "source_text": "as §1, §2, §3"}, "TCR 11 Analog 3": {"tested_on": "TCR 11 Analog 3", "source_text": "as §1, §2, §3"}, "TCR 11 Analog 4": {"tested_on": "TCR 11 Analog 4", "source_text": "as §1, §2, §3"}, "TCR 11 Analog 5": {"tested_on": "TCR 11 Analog 5", "source_text": "as §1, §2, §3"}, "TCR 11 Analog 6": {"tested_on": "TCR 11 Analog 6", "source_text": "as §1, §2, §3"}, "TCR 11 Analog 7": {"tested_on": "TCR 11 Analog 7", "source_text": "as §1, §2, §3"}, "TCR 30 Analog 1": {"tested_on": "TCR 30 Analog 1", "source_text": "as §1, §2, §3"}, "TCR 30 Analog 2": {"tested_on": "TCR 30 Analog 2", "source_text": "as §1, §2, §3"}, "TCR 30 Analog 3": {"tested_on": "TCR 30 Analog 3", "source_text": "as §1, §2, §3"}, "TCR 30 Analog 4": {"tested_on": "TCR 30 Analog 4", "source_text": "as §1, §2, §3"}, "TCR 30 Analog 5": {"tested_on": "TCR 30 Analog 5", "source_text": "as §1, §2, §3"}, "TCR 30 Analog 6": {"tested_on": "TCR 30 Analog 6", "source_text": "as §1, §2, §3"}},
  "data": [
    {"sequence": "LQTLALNAARDP", "values": [
      {"measurement": "%GFP+CD69+ cells of SABR-NFAT-GFP-Jurkat cells", "setting": "TCR 4 Analog 1; technical replicate 1", "result": 1.53, "unit": "%"},
      {"measurement": "%GFP+CD69+ cells of SABR-NFAT-GFP-Jurkat cells", "setting": "TCR 4 Analog 1; technical replicate 2", "result": 1.83, "unit": "%"},
      {"measurement": "%GFP+CD69+ cells of SABR-NFAT-GFP-Jurkat cells", "setting": "TCR 4 Analog 2; technical replicate 1", "result": 1, "unit": "%"},
      {"measurement": "%GFP+CD69+ cells of SABR-NFAT-GFP-Jurkat cells", "setting": "TCR 4 Analog 2; technical replicate 2", "result": 0.84, "unit": "%"}
    ]},
    {"sequence": "SHLVEALYLVCGERG", "values": [
      {"measurement": "%GFP+CD69+ cells of SABR-NFAT-GFP-Jurkat cells", "setting": "TCR 11 Analog 1; technical replicate 1", "result": 0.66, "unit": "%"},
      {"measurement": "%GFP+CD69+ cells of SABR-NFAT-GFP-Jurkat cells", "setting": "TCR 11 Analog 1; technical replicate 2", "result": 0.81, "unit": "%"},
      {"measurement": "%GFP+CD69+ cells of SABR-NFAT-GFP-Jurkat cells", "setting": "TCR 11 Analog 2; technical replicate 1", "result": 17.2, "unit": "%"},
      {"measurement": "%GFP+CD69+ cells of SABR-NFAT-GFP-Jurkat cells", "setting": "TCR 11 Analog 2; technical replicate 2", "result": 16.8, "unit": "%"},
      {"measurement": "%GFP+CD69+ cells of SABR-NFAT-GFP-Jurkat cells", "setting": "TCR 11 Analog 3; technical replicate 1", "result": 0.85, "unit": "%"},
      {"measurement": "%GFP+CD69+ cells of SABR-NFAT-GFP-Jurkat cells", "setting": "TCR 11 Analog 3; technical replicate 2", "result": 1.04, "unit": "%"},
      {"measurement": "%GFP+CD69+ cells of SABR-NFAT-GFP-Jurkat cells", "setting": "TCR 11 Analog 4; technical replicate 1", "result": 0.89, "unit": "%"},
      {"measurement": "%GFP+CD69+ cells of SABR-NFAT-GFP-Jurkat cells", "setting": "TCR 11 Analog 4; technical replicate 2", "result": 0.88, "unit": "%"},
      {"measurement": "%GFP+CD69+ cells of SABR-NFAT-GFP-Jurkat cells", "setting": "TCR 11 Analog 5; technical replicate 1", "result": 20.3, "unit": "%"},
      {"measurement": "%GFP+CD69+ cells of SABR-NFAT-GFP-Jurkat cells", "setting": "TCR 11 Analog 5; technical replicate 2", "result": 19.7, "unit": "%"},
      {"measurement": "%GFP+CD69+ cells of SABR-NFAT-GFP-Jurkat cells", "setting": "TCR 11 Analog 6; technical replicate 1", "result": 1, "unit": "%"},
      {"measurement": "%GFP+CD69+ cells of SABR-NFAT-GFP-Jurkat cells", "setting": "TCR 11 Analog 6; technical replicate 2", "result": 1.08, "unit": "%"},
      {"measurement": "%GFP+CD69+ cells of SABR-NFAT-GFP-Jurkat cells", "setting": "TCR 11 Analog 7; technical replicate 1", "result": 0.78, "unit": "%"},
      {"measurement": "%GFP+CD69+ cells of SABR-NFAT-GFP-Jurkat cells", "setting": "TCR 11 Analog 7; technical replicate 2", "result": 1.05, "unit": "%"},
      {"measurement": "%GFP+CD69+ cells of SABR-NFAT-GFP-Jurkat cells", "setting": "TCR 30 Analog 1; replicate 1", "result": 3.25, "unit": "%"},
      {"measurement": "%GFP+CD69+ cells of SABR-NFAT-GFP-Jurkat cells", "setting": "TCR 30 Analog 1; replicate 2", "result": 3.04, "unit": "%"},
      {"measurement": "%GFP+CD69+ cells of SABR-NFAT-GFP-Jurkat cells", "setting": "TCR 30 Analog 1; replicate 3", "result": 3.1, "unit": "%"},
      {"measurement": "%GFP+CD69+ cells of SABR-NFAT-GFP-Jurkat cells", "setting": "TCR 30 Analog 2; replicate 1", "result": 19.2, "unit": "%"},
      {"measurement": "%GFP+CD69+ cells of SABR-NFAT-GFP-Jurkat cells", "setting": "TCR 30 Analog 2; replicate 2", "result": 19, "unit": "%"},
      {"measurement": "%GFP+CD69+ cells of SABR-NFAT-GFP-Jurkat cells", "setting": "TCR 30 Analog 2; replicate 3", "result": 20, "unit": "%"},
      {"measurement": "%GFP+CD69+ cells of SABR-NFAT-GFP-Jurkat cells", "setting": "TCR 30 Analog 3; replicate 1", "result": 1.16, "unit": "%"},
      {"measurement": "%GFP+CD69+ cells of SABR-NFAT-GFP-Jurkat cells", "setting": "TCR 30 Analog 3; replicate 2", "result": 1.27, "unit": "%"},
      {"measurement": "%GFP+CD69+ cells of SABR-NFAT-GFP-Jurkat cells", "setting": "TCR 30 Analog 3; replicate 3", "result": 1.1, "unit": "%"},
      {"measurement": "%GFP+CD69+ cells of SABR-NFAT-GFP-Jurkat cells", "setting": "TCR 30 Analog 4; replicate 1", "result": 1.2, "unit": "%"},
      {"measurement": "%GFP+CD69+ cells of SABR-NFAT-GFP-Jurkat cells", "setting": "TCR 30 Analog 4; replicate 2", "result": 1.13, "unit": "%"},
      {"measurement": "%GFP+CD69+ cells of SABR-NFAT-GFP-Jurkat cells", "setting": "TCR 30 Analog 4; replicate 3", "result": 1.05, "unit": "%"},
      {"measurement": "%GFP+CD69+ cells of SABR-NFAT-GFP-Jurkat cells", "setting": "TCR 30 Analog 5; replicate 1", "result": 34.3, "unit": "%"},
      {"measurement": "%GFP+CD69+ cells of SABR-NFAT-GFP-Jurkat cells", "setting": "TCR 30 Analog 5; replicate 2", "result": 35.1, "unit": "%"},
      {"measurement": "%GFP+CD69+ cells of SABR-NFAT-GFP-Jurkat cells", "setting": "TCR 30 Analog 5; replicate 3", "result": 34.2, "unit": "%"},
      {"measurement": "%GFP+CD69+ cells of SABR-NFAT-GFP-Jurkat cells", "setting": "TCR 30 Analog 6; replicate 1", "result": 1.04, "unit": "%"},
      {"measurement": "%GFP+CD69+ cells of SABR-NFAT-GFP-Jurkat cells", "setting": "TCR 30 Analog 6; replicate 2", "result": 1.01, "unit": "%"},
      {"measurement": "%GFP+CD69+ cells of SABR-NFAT-GFP-Jurkat cells", "setting": "TCR 30 Analog 6; replicate 3", "result": 0.97, "unit": "%"}
    ]}
  ]
}
